This passage reports IC50 and Activity results from ChEMBL document CHEMBL5335831, “Total Synthesis of a TNBC-Selective Cytotoxic Bromo Nor-eremophilane, PC-A, and Its Preliminary Structure-Activity Relationships” (J Nat Prod, 2024).

In one assay the test system is A549. The assay can be described thus: Antiproliferative activity against human A549 cells assessed as cell growth inhibition incubated for 72 hrs by sulforhodamine B assay. The format is functional, cell-based. The note with it: A549, 72 h. In general terms: The SRB assay estimates cell density from bound dye.
Assay [1] can be described thus: Antiproliferative activity against human KB-VIN cells assessed as cell growth inhibition incubated for 72 hrs by sulforhodamine B assay. The note with it: KBVIN. The format is functional, cell-based.
In another assay the test system is MCF7. The assay can be described thus: Antiproliferative activity against human MCF7 cells assessed as cell growth inhibition incubated for 72 hrs by sulforhodamine B assay. The assay is classed as functional, cell-based. To be noted: MCF7, 72 h.
The subject of assay [2] is MDA-MB-231. The assay can be described thus: Antiproliferative activity against human MDA-MB-231 cells assessed as cell growth inhibition incubated for 72 hrs by sulforhodamine B assay. The format is functional, cell-based. To be noted: MDA-MB-231, 72 h.
The next assay deals with KB. The assay can be described thus: Antiproliferative activity against human KB cells assessed as cell growth inhibition incubated for 72 hrs by sulforhodamine B assay. The assay is classed as functional, cell-based.
Assay [3] deals with MDA-MB-231. The assay can be described thus: Induction of cell cycle arrest in human MDA-MB-231 cells assessed as accumulation of cells at G2/M phase at IC50 incubated for 24 hrs by propidium iodide staining based flow cytometry. The format is functional.
Assay [4] relates to MDA-MB-231. The assay can be described thus: Induction of cell cycle arrest in human MDA-MB-231 cells assessed as accumulation of cells at G2/M phase at IC50 x 8 incubated for 24 hrs by propidium iodide staining based flow cytometry. The assay is classed as functional. Background: In flow cytometry, cells or beads pass a laser one at a time.
The test system of assay [5] is MDA-MB-231. The assay can be described thus: Induction of cell cycle arrest in human MDA-MB-231 cells assessed as accumulation of cells at sub-G1 phase at 8 x IC50 incubated for 24 hrs by propidium iodide staining based flow cytometry. The format is functional.
Assay [6] concerns MDA-MB-231. The assay can be described thus: Induction of nuclear fragmentation in human MDA-MB-231 cells at 8 x IC50 incubated for 24 hrs by propidium iodide staining based flow cytometry. The assay is classed as functional, cell-based.

pIC50: −log10 of the molar value. Active and inactive are the calls of the source. No cut-off for these calls is given here.

Consider `CC(=O)C1=C(O)C=C2C=CC(=O)[C@H](C)[C@@]2(C)C1`, for which the pIC50 with A549 was 4.54; in [1] it was 4.59; in the assay with MCF7, 4.80; in the assay on MDA-MB-231 [2], 4.51; in the assay with KB, 5.02.

As for `C[C@H]1C(=O)C=CC2=CC(=O)CC[C@@]21C`, the pIC50 (in the assay with A549; in assay [1]; in the assay with MCF7; in the assay on MDA-MB-231 [2]; in the assay with KB) was less than 4.40 throughout.

With `CC(=O)C1=C(O)C=C2C=C[C@H](O)[C@H](C)[C@@]2(C)C1`, the pIC50 (in the assay with A549; in assay [1]; in the assay on MCF7; in the assay with MDA-MB-231 [2]; in the assay with KB) was less than 4.40 throughout.

`C[C@H]1[C@H](O)C=CC2=CC(=O)CC[C@@]21C`: the pIC50 in the assay with A549 was less than 4.40; in assay [1] it was less than 4.40; in the assay with MCF7 it was less than 4.40; in the assay with MDA-MB-231 [2], less than 4.40; with KB it was 4.49.

As for `C[C@H]1[C@H](O)C=C(Br)C2=CC(=O)CC[C@@]21C`, the pIC50 in the assay with A549 was 4.46; in assay [1] it was 4.43; in the assay on MCF7, 4.44; in the assay on MDA-MB-231 [2], 4.49; with KB, 4.54.

On to `CC(=O)C1=C(O)C=C2C(Br)=C[C@H](O)[C@H](C)[C@@]2(C)C1`, for which the pIC50 with A549 is 4.72; in assay [1], 4.74; in the assay with MCF7, 4.89; with MDA-MB-231 [2], 5.28; in the assay with KB it was 4.82. The result with MDA-MB-231 [3] and in the assay on MDA-MB-231 [4] was Active.

On to `C[C@H]1C(=O)C=C(Br)C2=CC(=O)CC[C@@]21C`, for which the outcome with MDA-MB-231 [5], in the assay on MDA-MB-231 [6] and with MDA-MB-231 [3] was Active. The pIC50 in the assay on A549 was 4.60; in assay [1], 4.72; with MCF7, 4.77; in the assay with MDA-MB-231 [2], 5.19; with KB, 4.74.

Turning to `CC(=O)C1=C(O)C=C2C(Br)=CC(=O)[C@H](C)[C@@]2(C)C1`, the pIC50 is 5.10 in the assay on A549; 5.10 in assay [1]; 5.16 with MCF7; 5.28 in the assay on MDA-MB-231 [2]; 5.30 in the assay on KB. For the same compound, the outcome in the assay on MDA-MB-231 [3] was Active.

For the compound `CC(=O)O[C@H]1C(=O)[C@@]2(C)[C@H]([C@H](OC(=O)c3ccccc3)[C@]3(O)C[C@H](OC(=O)[C@H](O)[C@@H](NC(=O)c4ccccc4)c4ccccc4)C(C)=C1C3(C)C)[C@]1(OC(C)=O)CO[C@@H]1C[C@@H]2O` [PACLITAXEL], the pIC50 in the assay on A549 is 8.27; in [1], 5.62; in the assay with MCF7, 7.96.

What is called pIC50 is the negative decadic logarithm of the IC50, by convention in mol/L.
